In patent US7138361B2, “Herbicidal heterocycles” (E. I. du Pont de Nemours and Company, priority 2000, dated 2006):

Columns and labels:
Format in all cases: in vivo
[1] = test system: barnyardgrass (Echinochloa crus-galli); assay: Test B preemergence
Outline: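 Visual injury scores, 0 = no effect to 100 = complete control, assigned against controls after 13 to 15 days in the greenhouse. Compounds formulated in non-phytotoxic solvent plus surfactant and applied to soil after planting (pre) or onto foliage of 1- to 4-leaf plants (post).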

Nightshade [2] = assay: Test C preemergence
[3] = test system: bermudagrass (Cynodon dactylon); assay: Test C preemergence; conditions: for Plant response rating (0 to 100 where 0 is no effect and 100 is complete control), Bermudagrass: visual evaluation after 12 to 14 days
Outline: (§1)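 Preemergence: seeds sown then treated. Postemergence: plants 2–18 cm, 1- to 4-leaf. Both with surfactant-containing solvent formulation; visual injury scored 0–100 after 12–14 d.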

[4] = test system: cocklebur (Xanthium strumarium); assay: Test C preemergence; conditions: for Plant response rating (0 to 100), Cocklebur: visual evaluation after 12 to 14 days
Outline: as §1

corn (Zea mays) = assay: Test C preemergence; conditions: for Plant response rating (0 to 100), Corn: visual evaluation after 12 to 14 days
Outline: as §1

[5] = test system: crabgrass (Digitaria sanguinalis); assay: Test C preemergence; conditions: for Plant response rating (0 to 100), Crabgrass: visual evaluation after 12 to 14 days
Outline: as §1

[6] = test system: giant foxtail (Setaria faberii); assay: Test C preemergence; conditions: for Plant response rating (0 to 100), Foxtail, Giant: visual evaluation after 12 to 14 days
Outline: as §1

[7] = test system: goosegrass (Eleusine indica); assay: Test C preemergence; conditions: for Plant response rating (0 to 100), Goosegrass: visual evaluation after 12 to 14 days
Outline: as §1

[8] = test system: johnsongrass (Sorghum halepense); assay: Test C preemergence; conditions: for Plant response rating (0 to 100), Johnsongrass: visual evaluation after 12 to 14 days
Outline: as §1

kochia (Kochia scoparia) = assay: Test C preemergence; conditions: for Plant response rating (0 to 100), Kochia: visual evaluation after 12 to 14 days
Outline: as §1

[9] = test system: lambsquarters (Chenopodium album); assay: Test C preemergence; conditions: for Plant response rating (0 to 100), Lambsquarters: visual evaluation after 12 to 14 days
Outline: as §1

[10] = test system: morningglory (Ipomoea hederacea); assay: Test C preemergence; conditions: for Plant response rating (0 to 100), Morningglory: visual evaluation after 12 to 14 days
Outline: as §1

[11] = test system: pigweed (Amaranthus retroflexus); assay: Test C preemergence; conditions: for Plant response rating (0 to 100), Pigweed: visual evaluation after 12 to 14 days
Outline: as §1

soybean (Glycine max) = assay: Test C preemergence; conditions: for Plant response rating (0 to 100), Soybean: visual evaluation after 12 to 14 days
Outline: as §1

[12] = test system: velvetleaf (Abutilon theophrasti); assay: Test C preemergence; conditions: for Plant response rating (0 to 100), Velvetleaf: visual evaluation after 12 to 14 days
Outline: as §1

[13] = test system: woolly cupgrass (Eriochloa villosa); assay: Test C preemergence; conditions: for Plant response rating (0 to 100), Cupgrass, Woolly: visual evaluation after 12 to 14 days
Outline: as §1

[14] = test system: yellow nutsedge (Cyperus esculentus); assay: Test C preemergence; conditions: for Plant response rating (0 to 100), Nutsedge: visual evaluation after 12 to 14 days
Outline: as §1

Nightshade [15] = assay: Test C preemergence; conditions: visual evaluation after 12 to 14 days
Sunflower = assay: Test C preemergence; conditions: visual evaluation after 12 to 14 days
[16] = Preemergence, Rate 500 g/ha, scale 0 to 100, 0 no effect, 100 complete control
[17] = Rate 125 g/ha, scale 0 to 100, 0 no effect, 100 complete control
[18] = preemergence, Rate 62 g/ha, scale 0 to 100
[19] = preemergence, Rate 250 g/ha, scale 0 to 100, 0 no effect, 100 complete control
[20] = preemergence, Rate 125 g/ha, scale 0 to 100, 0 no effect, 100 complete control
[21] = Preemergence, Rate 500 g/ha, scale 0 to 100
[22] = Rate 62 g/ha, scale 0 to 100, 0 no effect, 100 complete control

CCC(C)c1ccn(C2CCN(c3ccc(Cl)c(OC)c3)C2=O)n1 (stereo not drawn) [Compound 119]
Plant response rating, Barnyardgrass [1, 16]: 100 | Plant response rating, Barnyardgrass ([1]; preemergence, Rate 125 g/ha, scale of 0 to 100 where 0 is no effect and 100 is complete control, 13 to 15 days): 100 | Plant response rating, Nightshade (Nightshade [2]; Rate 62 g/ha, scale 0 to 100): 100 | Plant response rating, Nightshade (Nightshade [2]; Rate 125 g/ha; scale 0 to 100, 0 no effect, 100 complete control): 100 | Plant response rating, Nightshade (Nightshade [2]; Rate 250 g/ha, scale 0 to 100, 0 no effect, 100 complete control): 100 | Plant response rating, Bermudagrass [3, 17]: 100 | Plant response rating, Bermudagrass [3, 18]: 100 | Plant response rating (0 to 100 where 0 is no effect and 100 is complete control), Bermudagrass ([3]; preemergence, Rate 500 g/ha): 100 | Plant response rating, Bermudagrass [3, 19]: 100 | Plant response rating (0 to 100), Cocklebur ([4]; preemergence, Rate 500 g/ha): 50 | Plant response rating, Cocklebur [4, 19]: 20 | Plant response rating, Corn (corn (Zea mays); [17]): 30 | Plant response rating, Corn (corn (Zea mays); [18]): 30 | Plant response rating (0 to 100), Corn (corn (Zea mays); preemergence, Rate 500 g/ha): 90 | Plant response rating, Corn (corn (Zea mays); [19]): 60 | Plant response rating, Crabgrass [5, 17]: 100 | Plant response rating, Crabgrass [5, 18]: 100 | Plant response rating (0 to 100), Crabgrass ([5]; preemergence, Rate 500 g/ha): 100 | Plant response rating, Crabgrass [5, 19]: 100 | Plant response rating, Foxtail, Giant [6, 17]: 100 | Plant response rating, Foxtail, Giant [6, 18]: 50 | Plant response rating (0 to 100), Foxtail, Giant ([6]; preemergence, Rate 500 g/ha): 100 | Plant response rating, Foxtail, Giant [6, 19]: 90 | Plant response rating, Goosegrass [7, 17]: 100 | Plant response rating, Goosegrass [7, 18]: 100 | Plant response rating (0 to 100), Goosegrass ([7]; preemergence, Rate 500 g/ha): 100 | Plant response rating, Goosegrass [7, 19]: 100 | Plant response rating, Johnsongrass [8, 17]: 100 | Plant response rating, Johnsongrass [8, 18]: 90 | Plant response rating (0 to 100), Johnsongrass ([8]; preemergence, Rate 500 g/ha): 100 | Plant response rating, Johnsongrass [8, 19]: 100 | Plant response rating, Kochia (kochia (Kochia scoparia); [17]): 100 | Plant response rating, Kochia (kochia (Kochia scoparia); [18]): 100 | Plant response rating (0 to 100), Kochia (kochia (Kochia scoparia); preemergence, Rate 500 g/ha): 100 | Plant response rating, Kochia (kochia (Kochia scoparia); [19]): 100 | Plant response rating, Lambsquarters [9, 17]: 100 | Plant response rating, Lambsquarters [9, 18]: 100 | Plant response rating (0 to 100), Lambsquarters ([9]; preemergence, Rate 500 g/ha): 100 | Plant response rating, Lambsquarters [9, 19]: 100 | Plant response rating, Morningglory [10, 17]: 90 | Plant response rating, Morningglory [10, 18]: 60 | Plant response rating (0 to 100), Morningglory ([10]; preemergence, Rate 500 g/ha): 100 | Plant response rating, Morningglory [10, 19]: 100 | Plant response rating, Pigweed [11, 17]: 50 | Plant response rating, Pigweed [11, 18]: 50 | Plant response rating (0 to 100), Pigweed ([11]; preemergence, Rate 500 g/ha): 100 | Plant response rating, Pigweed [11, 19]: 90 | Plant response rating, Soybean (soybean (Glycine max); [17]): 80 | Plant response rating, Soybean (soybean (Glycine max); [18]): 60 | Plant response rating (0 to 100), Soybean (soybean (Glycine max); preemergence, Rate 500 g/ha): 100 | Plant response rating, Soybean (soybean (Glycine max); [19]): 100 | Plant response rating, Velvetleaf [12, 17]: 100 | Plant response rating, Velvetleaf [12, 18]: 60 | Plant response rating (0 to 100), Velvetleaf ([12]; preemergence, Rate 500 g/ha): 100 | Plant response rating, Velvetleaf [12, 19]: 100 | Plant response rating, Cupgrass, Woolly [13, 17]: 100 | Plant response rating, Cupgrass, Woolly [13, 18]: 100 | Plant response rating (0 to 100), Cupgrass, Woolly ([13]; preemergence, Rate 500 g/ha): 100 | Plant response rating, Cupgrass, Woolly [13, 19]: 100 | Plant response rating, Nutsedge [14, 17]: 20 | Plant response rating, Nutsedge [14, 18]: 0 | Plant response rating (0 to 100), Nutsedge ([14]; preemergence, Rate 500 g/ha): 30 | Plant response rating, Nutsedge [14, 19]: 30 | Plant response rating (0 to 100), Nightshade (Nightshade [15]; Rate 500 g/ha): 100 | Plant response rating (0 to 100), Sunflower (Sunflower; Rate 500 g/ha): 100

CC(C)(C)c1ccn(C2CCN(c3cccc(C(F)(F)F)c3)C2=S)n1 (stereo not drawn) [Compound 22]
Plant response rating, Barnyardgrass [1, 16]: 80 | Plant response rating, Barnyardgrass [1, 20]: 0 | Plant response rating, Nightshade (Nightshade [2]; Rate 62 g/ha; scale 0 to 100, 0 no effect, 100 complete control): 0 | Plant response rating, Nightshade (Nightshade [2]; [17]): 0 | Plant response rating, Nightshade (Nightshade [2]; Rate 500 g/ha, scale 0 to 100): 80 | Plant response rating, Bermudagrass [3, 21]: 100 | Plant response rating, Bermudagrass [3, 22]: 30 | Plant response rating (0 to 100 where 0 is no effect and 100 is complete control), Bermudagrass ([3]; preemergence, Rate 250 g/ha): 100 | Plant response rating, Bermudagrass [3, 20]: 100 | Plant response rating, Cocklebur [4, 21]: 0 | Plant response rating, Cocklebur [4, 22]: 0 | Plant response rating (0 to 100), Cocklebur ([4]; preemergence, Rate 250 g/ha): 0 | Plant response rating, Cocklebur [4, 20]: 0 | Plant response rating, Corn (corn (Zea mays); [21]): 30 | Plant response rating, Corn (corn (Zea mays); [22]): 20 | Plant response rating (0 to 100), Corn (corn (Zea mays); preemergence, Rate 250 g/ha): 20 | Plant response rating, Corn (corn (Zea mays); [20]): 20 | Plant response rating, Crabgrass [5, 21]: 100 | Plant response rating, Crabgrass [5, 22]: 50 | Plant response rating (0 to 100), Crabgrass ([5]; preemergence, Rate 250 g/ha): 100 | Plant response rating, Crabgrass [5, 20]: 100 | Plant response rating, Foxtail, Giant [6, 21]: 100 | Plant response rating, Foxtail, Giant [6, 22]: 30 | Plant response rating (0 to 100), Foxtail, Giant ([6]; preemergence, Rate 250 g/ha): 0 | Plant response rating, Foxtail, Giant [6, 20]: 0 | Plant response rating, Goosegrass [7, 21]: 100 | Plant response rating, Goosegrass [7, 22]: 90 | Plant response rating (0 to 100), Goosegrass ([7]; preemergence, Rate 250 g/ha): 100 | Plant response rating, Goosegrass [7, 20]: 90 | Plant response rating, Johnsongrass [8, 21]: 40 | Plant response rating, Johnsongrass [8, 22]: 20 | Plant response rating (0 to 100), Johnsongrass ([8]; preemergence, Rate 250 g/ha): 40 | Plant response rating, Johnsongrass [8, 20]: 30 | Plant response rating, Kochia (kochia (Kochia scoparia); [21]): 100 | Plant response rating, Kochia (kochia (Kochia scoparia); [22]): 100 | Plant response rating (0 to 100), Kochia (kochia (Kochia scoparia); preemergence, Rate 250 g/ha): 100 | Plant response rating, Kochia (kochia (Kochia scoparia); [20]): 100 | Plant response rating, Lambsquarters [9, 21]: 100 | Plant response rating, Lambsquarters [9, 22]: 100 | Plant response rating (0 to 100), Lambsquarters ([9]; preemergence, Rate 250 g/ha): 100 | Plant response rating, Lambsquarters [9, 20]: 100 | Plant response rating, Morningglory [10, 21]: 0 | Plant response rating, Morningglory [10, 22]: 0 | Plant response rating (0 to 100), Morningglory ([10]; preemergence, Rate 250 g/ha): 0 | Plant response rating, Morningglory [10, 20]: 0 | Plant response rating, Pigweed [11, 21]: 100 | Plant response rating, Pigweed [11, 22]: 100 | Plant response rating (0 to 100), Pigweed ([11]; preemergence, Rate 250 g/ha): 50 | Plant response rating, Pigweed [11, 20]: 50 | Plant response rating, Soybean (soybean (Glycine max); [21]): 40 | Plant response rating, Soybean (soybean (Glycine max); [22]): 30 | Plant response rating (0 to 100), Soybean (soybean (Glycine max); preemergence, Rate 250 g/ha): 40 | Plant response rating, Soybean (soybean (Glycine max); [20]): 40 | Plant response rating, Velvetleaf [12, 21]: 0 | Plant response rating, Velvetleaf [12, 22]: 0 | Plant response rating (0 to 100), Velvetleaf ([12]; preemergence, Rate 250 g/ha): 0 | Plant response rating, Velvetleaf [12, 20]: 0 | Plant response rating, Cupgrass, Woolly [13, 21]: 100 | Plant response rating, Cupgrass, Woolly [13, 22]: 40 | Plant response rating (0 to 100), Cupgrass, Woolly ([13]; preemergence, Rate 250 g/ha): 100 | Plant response rating, Cupgrass, Woolly [13, 20]: 70 | Plant response rating, Nutsedge [14, 21]: 20 | Plant response rating, Nutsedge [14, 22]: 0 | Plant response rating (0 to 100), Nutsedge ([14]; preemergence, Rate 250 g/ha): 0 | Plant response rating, Nutsedge [14, 20]: 0 | Plant response rating (0 to 100), Nightshade (Nightshade [15]; Rate 250 g/ha): 40 | Plant response rating (0 to 100), Sunflower (Sunflower; Rate 250 g/ha): 0
